For test [1], the system named is BEAS-2B. In words: Alamar Blue cytotoxicity test, BEAS-2B. In kind it is cell-based, Human. The note with it: 24 h incubation, read-out: IC50 values for BEAS-2B line. The procedure: The cytotoxicity of the tested chemical compounds MJ1–MJ20 was tested using the Alamar Blue test. The experiment was conducted on cell lines BEAS-2B (Figure 7), HCT116 (Figure 8), U2OS (Figure 9), MCF7 (Figure 10), SH-SY5Y (Figure 11), NHDF (Figure 12), and A549 (Figure 13). Cells were seeded in 96-well plates and incubated with the tested compounds for 24 h. The test result is the IC50 parameter, which is a measure of cytotoxic activity expressed by the concentration of the substance that causes the death of half of the analyzed cells compared to the control.
In cytotoxicity studies, the Alamar Blue test was used, which is based on the ability of living cells to reduce the non-fluorescent dye resazurin to fluorescent resorufin, which reflects the metabolic activity of cells. BEAS-2B, NHDF, HCT116, MCF7, A549, SH-SY5Y and U2OS cell lines were cultured under standard conditions, in DMEM medium supplemented with 10% FBS and 1% penicillin/streptomycin, at 37 °C, 5% CO2 and 95% humidity. Cells were seeded in 96-well plates at 1 × 10^4 cells per well and incubated for 24 h. Then, the tested compounds (MJ1–MJ20) were added at different concentrations (from 6.25 µM to 100 µM). The control contained cells untreated with the tested compounds. After 24 h of incubation, 10 µL of Alamar Blue solution was added to each well and incubated for another 2–4 h under the same conditions. The signal was measured spectrophotometrically at wavelengths of 570 nm (for resorufin) and 600 nm (for resazurin) or optionally fluorimetrically, using an excitation maximum of 570 nm and an emission maximum of 585 nm. The results were presented as percentage of cell survival relative to the control, calculating the ratio of absorbance or fluorescence of the sample to the control value. The Alamar Blue assay, due to its sensitivity and non-toxicity, allows for an accurate assessment of metabolic activity and cell survival in response to the tested quinobenzothiazines.
On the technique in general: Alamar Blue is a resazurin reagent that responds to reducing activity.

For test [2], the system named is BCL2 gene. In words: RT-qPCR BCL2 gene expression in BEAS-2B. In kind it is cell-based, Human. The note with it: 24 h; for fold induction at 100 µM: Homo sapiens, reference gene RPL41, vs untreated control, read-out: Relative level of expression, BCL2 gene. The procedure: (§1) Real-time polymerase chain reaction was performed for the reference gene RPL41 (ribosomal protein L41) and the tested genes: BCL2, AIFM2, MDM2, IL6 and IL8. […] The BEAS-2B line was selected for the experiment. The expression level of selected genes was measured after 24 h of incubation with the tested substances MJ1–MJ20 at a concentration of 100 μM (Table 3).
The RT-qPCR experiment was performed for the BEAS-2B cell line. In this experiment, the BCL2 gene was studied, and RPL41 was used as the reference gene (Figure 14).
(§2) Gene expression studies used quantitative RT-qPCR to assess the effect of the tested quinobenzothiazines (MJ1–MJ20) on the expression of apoptosis-related genes (BCL2, AIFM2, MDM2) and pro-inflammatory cytokines (IL6, IL8) (Table 4).
(§3) BEAS-2B and HCT116 cells were seeded in 6-well plates at 2 × 10^5 cells per well and cultured in RPMI-1640 (BEAS-2B) or DMEM (HCT116) medium supplemented with 10% FBS and 1% penicillin/streptomycin at 37 °C, 5% CO2 and 95% humidity. After 24 h of incubation, the tested compounds were added at a concentration of 100 µM. After 24 h, the medium was removed from the cells, washed with PBS solution, 0.5 mL of trypsin was added per well and after 5 min it was neutralized with medium. The obtained cell suspension was centrifuged for 3 min at 2000 rpm, the supernatant was removed, and the obtained pellet was suspended in 400 µL of phenozol. Samples were frozen at −20 °C and stored until further experiment and RNA isolation.
(§4) Total RNA was isolated from cells using the A&A Biotechnology Total RNA Mini kit according to the manufacturer’s protocol. RNA quality and quantity were assessed using a NanoDrop 2000 spectrophotometer at 260/280 nm. Reverse transcription was performed using the protocol (EURx NG dART RT Kit) to obtain cDNA. After incubation, samples were placed in a freezer (−20 °C) and stored until further analysis.
(§5) The experiment was performed according to the protocol (Brilliant III Ultra Fast SYBR® Green QPCR Master Mix, Quick Reference Guide for the Bio-Rad CFX96 Real-Time PCR Detection System). RT-qPCR reaction was performed using specific primers for target genes (BCL2, AIFM2, MDM2, IL6, IL8). Gene expression was normalized to the expression of the reference gene RPL41. Reaction profiles and results were performed using Bio-Rad CFX Maestro 1.1 software from Bio-Rad. Analysis and calculations of the results obtained during RT-qPCR were performed using Microsoft Excel.
(§6) The results were analyzed using the R = 2^−ΔΔCt method, which allows for determining the relative level of gene expression (R) compared to the control. Each experiment was performed in three technical and biological replicates. RT-qPCR allowed for precise assessment of changes in the expression of genes related to the processes of apoptosis and inflammatory response under the influence of quinobenzothiazines, which allowed for identifying their potential mechanisms of action at the molecular level.
(In general: Quantitative PCR measures a nucleic acid by following its amplification.)

Test [3] deals with MDM2 gene. Description: RT-qPCR MDM2 gene expression in BEAS-2B. The format is cell-based, Human. Particulars: Homo sapiens, 24 h, reference gene RPL41, vs untreated control, read-out: Relative level of expression, MDM2 gene. The procedure: as §1
The RT-qPCR experiment was performed for the BEAS-2B cell line. In this experiment, the MDM2 gene was studied and RPL41 was used as reference gene (Figure 15).
as §2, §3, §4, §5, §6

Test [4] deals with AIFM2 gene. In words: RT-qPCR AIFM2 gene expression in BEAS-2B. The format is cell-based, Human. The note with it: Homo sapiens, 24 h, reference gene RPL41, vs untreated control, read-out: Relative level of expression, AIFM2 gene. The procedure: as §1
The RT-qPCR experiment was performed for the BEAS-2B cell line. In this experiment, the AIFM2 gene was studied and RPL41 was used as reference gene (Figure 16).
as §2, §3, §4, §5, §6

Test [5] relates to IL6 gene. Description: RT-qPCR IL6 gene expression in BEAS-2B. The format is cell-based, Human. Particulars: 24 h; for fold induction at 100 µM: Homo sapiens, reference gene RPL41, vs untreated control, read-out: Relative level of expression, IL6 gene. Here is the method: as §1
(§7) The RT-qPCR experiment was performed for the BEAS-2B cell line. In this experiment, the IL6 and IL8 genes were studied and RPL41 was used as a reference gene (Figure 17 and Figure 18).
as §2, §3, §4, §5, §6

Test [6] has as its system IL8 gene. In words: RT-qPCR IL8 gene expression in BEAS-2B. The format is cell-based. The note with it: Homo sapiens, 24 h, reference gene RPL41, vs untreated control, read-out: Relative level of expression, IL8 gene. The procedure:
as §1, §7, §2, §3, §4, §5, §6

Read-outs that look alike come from different tables or passages of the source.

As usually defined, the IC50 is the concentration needed to halve the response being measured. Consider `c1ccc(SCn2cc(CN3c4ccccc4Sc4cc5ccccc5nc43)nn2)cc1` [MJ5, 6-((1-((Phenylthio)methyl)-1H-1,2,3-triazol-4-yl)methyl)-quino[3,2-b]benzo[1,4]thiazine], for which the concentration for half-maximal inhibition (IC50) in test [1] (Homo sapiens, 24 h) was found to be 73 µM. Further, the fold induction at 100 µM in test [2] is 5; in test [3], 4.8; in test [4], 1.9; in test [5], 2.7; in test [6], 0.1.
For `CSc1ccc2c(c1)Sc1cc3ccccc3nc1N2Cc1cn(Cc2ccccc2)nn1` [MJ16, 9-Methylthio-6-[(1-benzyl-1H-1,2,3-triazol-4-yl)-methyl]-quino[3,2-b]benzo[1,4]thiazine], the IC50 in test [1] (Homo sapiens, 24 h) came to 84.7 µM. In addition, the fold induction at 100 µM in test [2] was 41.3; in test [3], 6.1; in test [4], 1.3; in test [5], 11.4; in test [6], 5.1.
In the case of `Fc1ccc(Cn2cc(CN3c4ccc(Cl)cc4Sc4cc5ccccc5nc43)nn2)cc1` [MJ12, 9-Chloro-6-((1-(4-fluorobenzyl)-1H-1,2,3-triazol-4-yl)methyl)-quino[3,2-b]benzo-[1,4]thiazine], the IC50 in test [1] was 75.6 µM; in test [1] (Homo sapiens, 24 h), 75.6 µM. Moreover, the fold induction at 100 µM in test [2] amounted to 25.9; in test [3] it was 3.8; in test [4], 0.6; in test [5], 6.2; in test [6] it was 4.9.
As to `Fc1ccc(Cn2cc(CN3c4ccc(F)cc4Sc4cc5ccccc5nc43)nn2)cc1` [MJ7, 9-Fluoro-6-((1-(4-fluorobenzyl)-1H-1,2,3-triazol-4-yl)methyl)-quino[3,2-b]benzo[1,4]thiazine], the concentration for half-maximal inhibition (IC50) in test [1] (Homo sapiens, 24 h) is 73.6 µM. The fold induction at 100 µM came to 7.5 in test [2]; 4.6 in test [3]; 3.3 in test [4]; 3.5 in test [5]; 2.6 in test [6].
Take `Fc1ccc2c(c1)Sc1cc3ccccc3nc1N2Cc1cn(Cc2ccccc2)nn1` [MJ6, 9-Fluoro-6-[(1-benzyl-1H-1,2,3-triazol-4-yl)-methyl]-quino[3,2-b]benzo[1,4]thiazine]: in test [1] (Homo sapiens, 24 h), the IC50 is 72.9 µM. For the same compound, the fold induction at 100 µM in test [2] came out at 8.5; in test [3], 5.1; in test [4], 1.8; in test [5], 3.2; in test [6], 0.1.
For `N#Cc1ccc(Cn2cc(CN3c4ccccc4Sc4cc5ccccc5nc43)nn2)cc1` [MJ4, 4-((4-((Quino[3,2-b]benzo[1,4]thiazin-6-yl)methyl)-1H-1,2,3-triazol-1-yl)methyl)benzonitrile], in test [1] (Homo sapiens, 24 h), the IC50 came out at 64.5 µM. For the same compound, the fold induction at 100 µM is 9.3 in test [2]; 4.3 in test [3]; 1.4 in test [4]; 3.1 in test [5]; 0.8 in test [6].
`CSc1ccc2c(c1)Sc1cc3ccccc3nc1N2Cc1cn(CSc2ccccc2)nn1` [MJ20, 9-Methylthio-6-((1-((phenylthio)methyl)-1H-1,2,3-triazol-4-yl)methyl)-quino[3,2-b]benzo[1,4]thiazine]: the IC50 in test [1] (Homo sapiens, 24 h) amounted to 83.7 µM. In test [2] (100 μM, compared to control), this compound gave a BCL2 expression increase of 69.4 fold. For the same compound, the fold induction at 100 µM in test [2] turned out to be 69.4; in test [3], 7.7; in test [4], 2.8; in test [5], 83.4; in test [6], 6.6. In addition, the IL6 expression increase in test [5] (100 μM, compared to control) amounted to 83.4 fold.
As to `N#Cc1ccc(Cn2cc(CN3c4ccc(Cl)cc4Sc4cc5ccccc5nc43)nn2)cc1` [MJ14, 4-((4-((9-Chloroquino[3,2-b]benzo[1,4]thiazin-6-yl)methyl)-1H-1,2,3-triazol-1-yl)methyl)-benzonitrile], the IC50 in test [1] (Homo sapiens, 24 h) was found to be 78.4 µM. Also, the fold induction at 100 µM is 43 in test [2]; 3.7 in test [3]; 1.2 in test [4]; 8.8 in test [5]; 3.6 in test [6].
On to `Clc1ccc(Cn2cc(CN3c4ccccc4Sc4cc5ccccc5nc43)nn2)cc1` [MJ3, 6-[(1-(4-Chlorobenzyl)-1H-1,2,3-triazol-4-yl)methyl]-quino[3,2-b]benzo[1,4]thiazine], for which the IC50 in test [1] (Homo sapiens, 24 h) came out at 75.4 µM. Besides, the fold induction at 100 µM in test [2] is 5.7; in test [3], 5.9; in test [4], 1.3; in test [5] it was 1.3; in test [6], 0.3.
With `N#Cc1ccc(Cn2cc(CN3c4ccc(F)cc4Sc4cc5ccccc5nc43)nn2)cc1` [MJ9, 4-((4-((9-Fluoroquino [3,2-b]benzo[1,4]thiazin-6-yl)methyl)-1H-1,2,3-triazol-1-yl)methyl)-benzonitrile], in test [1] (Homo sapiens, 24 h), the IC50 was 73 µM. In addition, the fold induction at 100 µM in test [2] came out at 9.8; in test [3], 5.6; in test [4] it was 4.5; in test [5] it was 4.3; in test [6], 0.9.
Turning to `Clc1ccc(Cn2cc(CN3c4ccc(Cl)cc4Sc4cc5ccccc5nc43)nn2)cc1` [MJ13, 9-Chloro-6-[(1-(4-chlorobenzyl)-1H-1,2,3-triazol-4-yl)methyl]-quino[3,2-b]benzo-[1,4]thiazine], the concentration for half-maximal inhibition (IC50) in test [1] (Homo sapiens, 24 h) came out at 85.2 µM. Besides, the fold induction at 100 µM in test [2] was 23.4; in test [3], 2.3; in test [4], 0.3; in test [5], 6.5; in test [6] it was 1.7.

These data come from article PMC12295927, “Design, Synthesis, and Testing of 1,2,3-Triazolo-Quinobenzothiazine Hybrids for Cytotoxic and Immunomodulatory Activity” (International Journal of Molecular Sciences, 2025).
